Measured values: patent US12371428B2 (Exelixis, Inc., priority 2019, dated 2025)
Structures can show the parent of a compound that is named as a salt.

Tests used:
Type in all cases: cell-based
[1] = target: Met (phospho-Met, HGF-stimulated PC-3 prostate cancer cells) (Homo sapiens (Human), UniProt P08581); assay: Met autophosphorylation ELISA in PC-3 cells (Example F); conditions: cellular activity; Met autophosphorylation ELISA in PC-3 cells; read-out: c-Met IC50
Summary of the method: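 Compounds were tested on HGF-stimulated PC-3 cells. After 24 h culture and 3 h serum starvation, cells got compound for 1 h and 100 ng/mL HGF for 10 min, and Met tyrosine phosphorylation was measured by ELISA.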

[2] = target: KDR (phospho-KDR, VEGF165-stimulated HUVEC cells) (Homo sapiens (Human), UniProt P35968); assay: KDR autophosphorylation ELISA in HUVEC cells (Example G); conditions: cellular activity; KDR autophosphorylation ELISA in HUVEC cells
KDR (phospho-KDR, VEGF165-stimulated HUVEC cells), sequence (P35968 20-1356): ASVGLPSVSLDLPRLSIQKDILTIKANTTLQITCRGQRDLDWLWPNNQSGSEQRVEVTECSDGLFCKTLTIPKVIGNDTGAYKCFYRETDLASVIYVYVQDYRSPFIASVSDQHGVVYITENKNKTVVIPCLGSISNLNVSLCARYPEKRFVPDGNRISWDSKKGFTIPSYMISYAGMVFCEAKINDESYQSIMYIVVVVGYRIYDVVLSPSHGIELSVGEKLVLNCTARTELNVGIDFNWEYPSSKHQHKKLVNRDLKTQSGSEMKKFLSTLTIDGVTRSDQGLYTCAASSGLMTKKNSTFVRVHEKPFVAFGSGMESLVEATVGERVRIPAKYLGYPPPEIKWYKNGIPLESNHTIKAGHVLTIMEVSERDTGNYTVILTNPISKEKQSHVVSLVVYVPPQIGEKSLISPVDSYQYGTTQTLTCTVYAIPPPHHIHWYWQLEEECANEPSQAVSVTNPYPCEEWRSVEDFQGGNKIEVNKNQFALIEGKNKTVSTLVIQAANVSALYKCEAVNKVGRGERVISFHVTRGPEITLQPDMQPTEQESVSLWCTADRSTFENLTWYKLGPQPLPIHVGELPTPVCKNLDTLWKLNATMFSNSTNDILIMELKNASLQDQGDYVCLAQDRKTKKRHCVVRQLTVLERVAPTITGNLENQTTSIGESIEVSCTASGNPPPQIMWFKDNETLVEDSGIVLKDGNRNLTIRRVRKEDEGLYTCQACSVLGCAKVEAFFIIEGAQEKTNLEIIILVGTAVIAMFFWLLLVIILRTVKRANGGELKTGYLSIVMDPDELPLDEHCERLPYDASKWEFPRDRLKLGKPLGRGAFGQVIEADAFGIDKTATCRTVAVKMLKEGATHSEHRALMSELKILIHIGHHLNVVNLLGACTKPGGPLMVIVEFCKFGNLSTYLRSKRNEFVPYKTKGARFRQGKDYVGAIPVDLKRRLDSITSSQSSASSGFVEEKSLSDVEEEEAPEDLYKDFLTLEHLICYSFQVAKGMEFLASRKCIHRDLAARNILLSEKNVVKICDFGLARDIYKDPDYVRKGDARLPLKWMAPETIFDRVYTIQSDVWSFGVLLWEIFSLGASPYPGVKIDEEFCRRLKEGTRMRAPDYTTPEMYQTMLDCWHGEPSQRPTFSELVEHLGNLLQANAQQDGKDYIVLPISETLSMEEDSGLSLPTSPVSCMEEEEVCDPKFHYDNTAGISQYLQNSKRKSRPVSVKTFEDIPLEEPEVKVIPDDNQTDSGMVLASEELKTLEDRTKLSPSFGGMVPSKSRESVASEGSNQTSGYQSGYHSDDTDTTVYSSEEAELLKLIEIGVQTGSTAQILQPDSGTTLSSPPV
Summary of the method: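 HUVEC cells, serum-starved 24 h, were treated 1 h with an 8-point compound dilution (0.3% DMSO) and then stimulated with 100 ng/mL VEGF165 for 5 min. Phospho-KDR in lysates was quantified by sandwich ELISA against a phospho-KDR standard. IC50 from a 4-parameter logistic fit, normalised between stimulated DMSO and unstimulated controls.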

[3] = target: AXL (phospho-AXL, Gas6-stimulated A-172 glioblastoma cells) (Homo sapiens (Human), UniProt P30530); assay: AXL autophosphorylation ELISA in A-172 cells (Example E); conditions: cellular activity; AXL autophosphorylation ELISA in A-172 cells; read-out: Axl IC50
AXL (phospho-AXL, Gas6-stimulated A-172 glioblastoma cells), sequence (P30530 26-894): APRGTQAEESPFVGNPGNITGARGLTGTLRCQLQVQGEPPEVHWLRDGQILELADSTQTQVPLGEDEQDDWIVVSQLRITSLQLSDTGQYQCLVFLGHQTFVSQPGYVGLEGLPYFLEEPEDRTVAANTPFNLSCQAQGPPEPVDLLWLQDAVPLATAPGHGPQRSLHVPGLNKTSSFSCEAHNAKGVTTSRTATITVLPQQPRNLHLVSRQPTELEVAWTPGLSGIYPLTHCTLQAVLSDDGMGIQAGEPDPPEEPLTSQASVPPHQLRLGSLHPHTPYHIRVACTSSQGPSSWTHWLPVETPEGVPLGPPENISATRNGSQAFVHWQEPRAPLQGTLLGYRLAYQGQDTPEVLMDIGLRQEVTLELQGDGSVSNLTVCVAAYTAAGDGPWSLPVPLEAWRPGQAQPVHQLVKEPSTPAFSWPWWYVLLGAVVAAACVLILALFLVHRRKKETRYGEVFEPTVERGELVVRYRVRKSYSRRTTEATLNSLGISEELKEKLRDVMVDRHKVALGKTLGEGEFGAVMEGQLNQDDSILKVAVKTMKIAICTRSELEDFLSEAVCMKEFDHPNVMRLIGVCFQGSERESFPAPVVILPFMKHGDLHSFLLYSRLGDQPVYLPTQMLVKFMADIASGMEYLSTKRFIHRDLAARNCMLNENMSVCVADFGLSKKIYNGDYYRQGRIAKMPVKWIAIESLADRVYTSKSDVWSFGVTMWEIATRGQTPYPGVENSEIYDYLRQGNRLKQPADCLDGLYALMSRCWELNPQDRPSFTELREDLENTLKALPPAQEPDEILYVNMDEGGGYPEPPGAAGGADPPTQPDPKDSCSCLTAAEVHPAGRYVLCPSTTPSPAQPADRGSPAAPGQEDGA
Summary of the method: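 Phospho-AXL in lysates was quantified by ELISA, normalised to DMSO (100%) and reference inhibitor (0%) controls. IC50 by 4-parameter logistic fit.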

Met (phospho-Met, HGF-stimulated PC-3 prostate cancer cells), sequence (P08581 25-1390): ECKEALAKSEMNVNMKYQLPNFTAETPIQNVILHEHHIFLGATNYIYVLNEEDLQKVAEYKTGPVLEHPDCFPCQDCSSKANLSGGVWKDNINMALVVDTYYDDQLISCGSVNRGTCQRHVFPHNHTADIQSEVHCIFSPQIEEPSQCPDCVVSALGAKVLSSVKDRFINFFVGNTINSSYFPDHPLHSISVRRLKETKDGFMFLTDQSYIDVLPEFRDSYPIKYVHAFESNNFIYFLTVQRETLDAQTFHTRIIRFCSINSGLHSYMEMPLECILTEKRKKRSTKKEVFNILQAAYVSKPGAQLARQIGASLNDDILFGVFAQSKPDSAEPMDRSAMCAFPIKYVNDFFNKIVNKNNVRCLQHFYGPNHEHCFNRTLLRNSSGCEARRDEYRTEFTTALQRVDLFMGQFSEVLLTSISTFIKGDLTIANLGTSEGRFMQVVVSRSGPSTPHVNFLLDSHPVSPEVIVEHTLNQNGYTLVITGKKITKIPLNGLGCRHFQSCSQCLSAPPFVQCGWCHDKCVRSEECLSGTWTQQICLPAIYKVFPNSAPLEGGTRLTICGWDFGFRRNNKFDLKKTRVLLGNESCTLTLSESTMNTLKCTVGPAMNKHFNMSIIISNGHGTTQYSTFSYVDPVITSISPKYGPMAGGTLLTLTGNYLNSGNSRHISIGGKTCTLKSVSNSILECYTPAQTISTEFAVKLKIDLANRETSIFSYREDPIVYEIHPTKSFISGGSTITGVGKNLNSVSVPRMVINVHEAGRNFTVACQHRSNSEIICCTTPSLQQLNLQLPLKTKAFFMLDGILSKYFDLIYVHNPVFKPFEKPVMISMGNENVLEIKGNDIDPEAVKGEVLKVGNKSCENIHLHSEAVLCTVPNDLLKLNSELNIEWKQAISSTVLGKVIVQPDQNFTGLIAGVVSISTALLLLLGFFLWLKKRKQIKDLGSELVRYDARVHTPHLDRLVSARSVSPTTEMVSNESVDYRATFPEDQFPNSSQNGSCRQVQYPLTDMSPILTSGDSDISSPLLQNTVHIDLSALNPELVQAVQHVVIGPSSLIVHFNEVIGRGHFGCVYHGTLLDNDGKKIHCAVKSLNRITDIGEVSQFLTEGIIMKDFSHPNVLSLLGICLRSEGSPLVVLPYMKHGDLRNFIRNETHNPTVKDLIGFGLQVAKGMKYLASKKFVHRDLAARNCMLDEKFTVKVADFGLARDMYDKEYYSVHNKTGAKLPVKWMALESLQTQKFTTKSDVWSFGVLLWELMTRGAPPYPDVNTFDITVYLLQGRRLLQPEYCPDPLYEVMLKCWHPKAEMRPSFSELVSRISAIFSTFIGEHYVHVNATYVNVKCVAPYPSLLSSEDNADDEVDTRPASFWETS

SMILES	IC50 [1]	IC50 [2]	IC50 [3]
Cc1ncc(C(=O)Nc2ccc(Oc3ccnc4cnccc34)c(F)c2)c(O)c1-c1ccc(F)cc1 [Compound 642, N-[3-fluoro-4-(1,7-naphthyridin-4-yloxy)phenyl]-5-(4-fluorophenyl)-4-hydroxy-6-methylpyridine-3-carboxamide]	< 0.1 µM	< 0.1 µM	< 0.1 µM
COc1cc2nccc(Oc3ccc(NC(=O)c4cnc(C)c(-c5ccc(F)cc5)c4O)cc3)c2cc1OC [Compound 171, N-[4-(6,7-Dimethoxyquinolin-4-yl)oxyphenyl]-5-(4-fluorophenyl)-4-hydroxy-6-methylpyridine-3-carboxamide]	< 0.1 µM	< 0.1 µM	–
Cc1nc2c(Oc3ccc(NC(=O)c4cn(C(C)C)c(C)c(-c5ccc(F)cc5)c4=O)cc3F)ccnc2cc1-c1cccnc1 [Compound 620, N-[3-Fluoro-4-[(6-methyl-7-pyridin-3-yl-1,5-naphthyridin-4-yl)oxy]phenyl]-5-(4-fluorophenyl)-6-methyl-4-oxo-1-propan-2-ylpyridine-3-carboxamide]	0.1 to 0.3 µM	> 0.3 µM	–
Cc1cc(F)ccc1-c1c(C)ncc(C(=O)Nc2ccc(Oc3ccnc4cc(C(C)C)cnc34)c(F)c2)c1O [Compound 593, 5-(4-Fluoro-2-methylphenyl)-N-[3-fluoro-4-[(7-propan-2-yl-1,5-naphthyridin-4-yl)oxy]phenyl]-4-hydroxy-6-methylpyridine-3-carboxamide]	< 0.1 µM	< 0.1 µM	–
COc1ccc2nccc(Oc3ccc(NC(=O)c4cnc(C)c(-c5ccc(F)cc5)c4O)cc3F)c2n1 [Compound 172, N-[3-Fluoro-4-[(6-methoxy-1,5-naphthyridin-4-yl)oxy]phenyl]-5-(4-fluorophenyl)-4-hydroxy-6-methylpyridine-3-carboxamide]	< 0.1 µM	< 0.1 µM	–
COc1cc2nccc(Oc3ccc(NC(=O)c4c(C)nc(C)c(-c5ccc(F)cc5)c4O)cc3)c2nc1OC [Compound 173, N-[4-[(6,7-Dimethoxy-1,5-naphthyridin-4-yl)oxy]phenyl]-5-(4-fluorophenyl)-4-hydroxy-2,6-dimethylpyridine-3-carboxamide]	< 0.1 µM	< 0.1 µM	–
COC(=O)c1cnc2c(Oc3ccc(NC(=O)c4cnc(C)c(-c5ccc(F)cc5)c4O)cc3F)ccnc2c1 [Compound 138, Methyl 8-[2-fluoro-4-[[5-(4-fluorophenyl)-4-hydroxy-6-methylpyridine-3-carbonyl]amino]phenoxy]-1,5-naphthyridine-3-carboxylate]	> 0.3 µM	0.1 to 0.3 µM	–
CNc1nc2c(Oc3ccc(NC(=O)c4cn(C(C)C)c(C)c(-c5ccc(F)cc5)c4=O)cc3F)ccnc2cc1OC [Compound 582, N-[3-Fluoro-4-[[7-methoxy-6-(methylamino)-1,5-naphthyridin-4-yl]oxy]phenyl]-5-(4-fluorophenyl)-6-methyl-4-oxo-1-propan-2-ylpyridine-3-carboxamide]	< 0.1 µM	0.1 to 0.3 µM	–
Cc1nc2c(Oc3ccc(NC(=O)c4cn(C(C)C)c(C)c(-c5ccc(F)cc5)c4=O)cc3)ccnc2cc1-c1cnn(C(F)F)c1 [Compound 612, N-[4-[[7-[1-(Difluoromethyl)pyrazol-4-yl]-6-methyl-1,5-naphthyridin-4-yl]oxy]phenyl]-5-(4-fluorophenyl)-6-methyl-4-oxo-1-propan-2-ylpyridine-3-carboxamide hydrochloride]	0.1 to 0.3 µM	> 0.3 µM	–
Cc1ncc(C(=O)Nc2ccc(Oc3ccnc4cc(C(N)=O)cnc34)c(F)c2)c(O)c1-c1ccc(F)cc1 [Compound 577, 8-[2-Fluoro-4-[[5-(4-fluorophenyl)-4-hydroxy-6-methylpyridine-3-carbonyl]amino]phenoxy]-1,5-naphthyridine-3-carboxamide]	< 0.1 µM	< 0.1 µM	–
Cc1nc2c(Oc3ccc(NC(=O)c4cn(C(C)C)c(C)c(-c5ccc(F)cc5)c4=O)cc3)ccnc2cc1-c1cccnc1 [Compound 613, 5-(4-Fluorophenyl)-6-methyl-N-[4-[(6-methyl-7-pyridin-3-yl-1,5-naphthyridin-4-yl)oxy]phenyl]-4-oxo-1-propan-2-ylpyridine-3-carboxamide hydrochloride]	< 0.1 µM	> 0.3 µM	–
COc1cnc2c(Oc3ccc(NC(=O)c4cncc(-c5ccc(F)cc5)c4O)cc3F)ccnc2c1 [Compound 120, N-[3-Fluoro-4-[(7-methoxy-1,5-naphthyridin-4-yl)oxy]phenyl]-5-(4-fluorophenyl)-4-hydroxypyridine-3-carboxamide]	< 0.1 µM	< 0.1 µM	–
Cc1nc2c(Oc3ccc(NC(=O)c4cn(C(C)C)c(C)c(-c5ccc(F)cc5)c4=O)cc3F)ccnc2cc1Br [Compound 153, N-[4-[(7-Bromo-6-methyl-1,5-naphthyridin-4-yl)oxy]-3-fluorophenyl]-5-(4-fluorophenyl)-6-methyl-4-oxo-1-propan-2-ylpyridine-3-carboxamide]	< 0.1 µM	> 0.3 µM	–
COc1cc2nccc(Oc3ccc(NC(=O)c4cn(OC)cc(-c5ccc(F)cc5)c4=O)cc3)c2nc1OC [Compound 127, N-[4-[(6,7-Dimethoxy-1,5-naphthyridin-4-yl)oxy]phenyl]-5-(4-fluorophenyl)-1-methoxy-4-oxopyridine-3-carboxamide]	< 0.1 µM	< 0.1 µM	–
COc1cc2nccc(Oc3ccc(NC(=O)c4cn(-c5cccnc5)cc(-c5ccc(F)cc5)c4=O)cc3F)c2nc1OC [Compound 125, N-[4-[(6,7-Dimethoxy-1,5-naphthyridin-4-yl)oxy]-3-fluorophenyl]-5-(4-fluorophenyl)-4-oxo-1-pyridin-3-ylpyridine-3-carboxamide]	< 0.1 µM	> 0.3 µM	–
Cc1nc2c(Oc3ccc(NC(=O)c4cnc(C)c(-c5ccc(F)cc5)c4O)cc3F)ccnc2cc1-c1cccnc1 [Compound 618, N-[3-Fluoro-4-[(6-methyl-7-pyridin-3-yl-1,5-naphthyridin-4-yl)oxy]phenyl]-5-(4-fluorophenyl)-4-hydroxy-6-methylpyridine-3-carboxamide hydrochloride]	0.1 to 0.3 µM	< 0.1 µM	–
COc1cc2nccc(Oc3ccc(NC(=O)c4cnc(C(C)(C)C)c(-c5ccc(F)cc5)c4O)cc3F)c2nc1OC [Compound 155, 6-tert-Butyl-N-[4-[(6,7-dimethoxy-1,5-naphthyridin-4-yl)oxy]-3-fluorophenyl]-5-(4-fluorophenyl)-4-hydroxypyridine-3-carboxamide]	0.1 to 0.3 µM	> 0.3 µM	–
COc1cnc2c(Oc3ccc(NC(=O)c4cn(C(C)C)cc(-c5ccc(F)cc5)c4=O)cc3F)ccnc2c1 [Compound 123, N-[3-Fluoro-4-[(7-methoxy-1,5-naphthyridin-4-yl)oxy]phenyl]-5-(4-fluorophenyl)-4-oxo-1-propan-2-ylpyridine-3-carboxamide]	< 0.1 µM	> 0.3 µM	–
COc1cc2nccc(Oc3ccc(NC(=O)c4cn(C(C)C)c(C)c(-c5ccc(F)cc5)c4=O)cc3F)c2nc1Br [Compound 143, N-[4-[(6-Bromo-7-methoxy-1,5-naphthyridin-4-yl)oxy]-3-fluorophenyl]-5-(4-fluorophenyl)-6-methyl-4-oxo-1-propan-2-ylpyridine-3-carboxamide]	< 0.1 µM	0.1 to 0.3 µM	–
COc1cc2nccc(Oc3ccc(NC(=O)c4cn(-c5cnn(C)c5)c(C)c(-c5ccc(F)cc5)c4=O)cc3F)c2nc1OC [Compound 140, N-[4-[(6,7-Dimethoxy-1,5-naphthyridin-4-yl)oxy]-3-fluorophenyl]-5-(4-fluorophenyl)-6-methyl-1-(1-methylpyrazol-4-yl)-4-oxopyridine-3-carboxamide]	< 0.1 µM	> 0.3 µM	–
CCn1cc(C(=O)Nc2ccc(Oc3ccnc4cc(OC)cnc34)c(F)c2)c(=O)c(-c2ccc(F)cc2)c1C [Compound 164, 1-Ethyl-N-[3-fluoro-4-[(7-methoxy-1,5-naphthyridin-4-yl)oxy]phenyl]-5-(4-fluorophenyl)-6-methyl-4-oxopyridine-3-carboxamide]	< 0.1 µM	> 0.3 µM	–
COc1nc2c(Oc3ccc(NC(=O)c4cn(C(C)C)c(C)c(-c5ccc(F)cc5)c4=O)cc3F)ccnc2cc1Br [Compound 132, N-[4-[(7-Bromo-6-methoxy-1,5-naphthyridin-4-yl)oxy]-3-fluorophenyl]-5-(4-fluorophenyl)-6-methyl-4-oxo-1-propan-2-ylpyridine-3-carboxamide]	0.1 to 0.3 µM	0.1 to 0.3 µM	–
COc1nc2c(Oc3ccc(NC(=O)c4cnc(C)c(-c5ccc(F)cc5)c4O)cc3F)ccnc2cc1Br [Compound 130, N-[4-[(7-Bromo-6-methoxy-1,5-naphthyridin-4-yl)oxy]-3-fluorophenyl]-5-(4-fluorophenyl)-4-hydroxy-6-methylpyridine-3-carboxamide]	< 0.1 µM	< 0.1 µM	–
COc1nc2c(Oc3ccc(NC(=O)c4cncc(-c5ccc(F)cc5)c4O)cc3F)ccnc2cc1Br [Compound 129, N-[4-[(7-Bromo-6-methoxy-1,5-naphthyridin-4-yl)oxy]-3-fluorophenyl]-5-(4-fluorophenyl)-4-hydroxypyridine-3-carboxamide]	0.1 to 0.3 µM	< 0.1 µM	–
